How the values were obtained:
[1] = target: T1, FLT3 wt (Homo sapiens, UniProt P36888); assay: Lanthascreen TR-FRET enzymatic assay, FLT3; format: binding; conditions: recombinant FLT3, 1 hour at 25° C., 1% DMSO; read-out: Enzymology (IC50) FLT3 wt
T1 construct: purchased Life Technologies PV3182
T1 sequence (P36888 564-993 limits assumed): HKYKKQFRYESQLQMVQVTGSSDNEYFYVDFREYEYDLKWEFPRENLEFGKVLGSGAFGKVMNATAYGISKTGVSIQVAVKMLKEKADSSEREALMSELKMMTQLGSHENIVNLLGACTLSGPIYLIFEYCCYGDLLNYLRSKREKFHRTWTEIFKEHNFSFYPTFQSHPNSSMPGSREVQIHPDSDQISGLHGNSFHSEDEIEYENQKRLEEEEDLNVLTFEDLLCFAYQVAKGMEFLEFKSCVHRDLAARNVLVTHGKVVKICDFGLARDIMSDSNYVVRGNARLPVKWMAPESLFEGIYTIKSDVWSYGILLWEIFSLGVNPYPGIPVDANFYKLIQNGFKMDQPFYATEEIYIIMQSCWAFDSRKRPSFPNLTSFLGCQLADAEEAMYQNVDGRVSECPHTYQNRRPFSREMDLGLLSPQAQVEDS
Method: (§1) Recombinant FLT3 (#PV3182), JAK2 (#PV4210) and JAK3 (#PV3855) enzymes were purchased from Life Technologies. FLT3-ITD (#0778-0000-1) and FLT3^D835Y (#14-610) were respectively purchased from Proquinase and Merck Millipore.
(§2) The assays were conducted in 384-well plates based on Life Technologies Lanthascreen® TR-FRET methodologies.
FLT3 assays: 15 nM of FLT3, 3 nM of the 236 kinase tracker (Life Technologies #PV5592) and 6 nM of the Europium-tagged anti-His Lanthascreen® antibody are mixed into 15 μL total volume reaction mixture.
(§3) IC50s were determined from a 8-point dose-response curve spanning a >1000 fold concentration range using a 10 mM compound solution stock into pure DMSO (Sigma #D8418). The overall DMSO concentrations of tested solutions were 1%.
(§4) IC50s were generated with the software Prism (Graphpad).

[2] = target: T2, JAK2 (Homo sapiens, UniProt O60674); assay: Lanthascreen TR-FRET enzymatic assay, JAK2; format: binding; conditions: recombinant JAK2, 1 hour at 25° C., 1% DMSO; read-out: Enzymology (IC50) JAK2
T2 construct: purchased Life Technologies PV4210
T2 sequence (O60674 whole entry): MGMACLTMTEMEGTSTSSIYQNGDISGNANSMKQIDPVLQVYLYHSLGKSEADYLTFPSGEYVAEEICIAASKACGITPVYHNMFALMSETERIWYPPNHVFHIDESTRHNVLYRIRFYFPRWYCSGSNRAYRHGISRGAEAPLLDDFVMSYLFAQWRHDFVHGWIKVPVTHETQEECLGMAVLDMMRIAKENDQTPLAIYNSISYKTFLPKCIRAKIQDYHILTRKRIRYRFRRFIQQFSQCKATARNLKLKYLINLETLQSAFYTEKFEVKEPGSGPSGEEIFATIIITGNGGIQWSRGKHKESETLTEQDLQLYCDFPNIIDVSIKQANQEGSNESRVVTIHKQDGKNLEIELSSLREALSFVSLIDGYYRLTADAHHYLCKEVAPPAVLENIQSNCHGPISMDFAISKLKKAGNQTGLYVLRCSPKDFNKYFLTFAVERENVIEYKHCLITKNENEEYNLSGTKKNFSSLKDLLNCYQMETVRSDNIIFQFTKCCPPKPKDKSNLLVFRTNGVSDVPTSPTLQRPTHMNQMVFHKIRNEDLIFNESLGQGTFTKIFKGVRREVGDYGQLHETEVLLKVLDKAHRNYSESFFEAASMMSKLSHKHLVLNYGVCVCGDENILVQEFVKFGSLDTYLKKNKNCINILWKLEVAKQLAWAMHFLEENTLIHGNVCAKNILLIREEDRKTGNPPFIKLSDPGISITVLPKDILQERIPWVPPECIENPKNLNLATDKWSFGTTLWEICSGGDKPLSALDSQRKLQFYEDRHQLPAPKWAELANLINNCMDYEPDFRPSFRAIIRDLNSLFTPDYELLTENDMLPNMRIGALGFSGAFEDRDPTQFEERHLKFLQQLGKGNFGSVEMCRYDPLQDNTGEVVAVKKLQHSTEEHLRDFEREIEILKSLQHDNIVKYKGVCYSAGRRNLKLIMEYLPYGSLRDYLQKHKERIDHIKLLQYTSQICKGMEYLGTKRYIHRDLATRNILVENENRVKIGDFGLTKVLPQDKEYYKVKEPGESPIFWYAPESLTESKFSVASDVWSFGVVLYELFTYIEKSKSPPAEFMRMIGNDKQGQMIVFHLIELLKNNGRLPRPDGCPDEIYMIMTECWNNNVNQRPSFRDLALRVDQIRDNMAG
Method: as §1, §2
JAK2 assays: 15 nM of JAK2, 150 nM of the 236 kinase tracker (Life Technologies #PV5592) and 6 nM of the Europium-tagged anti-GST Lanthascreen® antibody are mixed into 15 μL total volume reaction mixture.
as §3, §4

[3] = target: T3, JAK3 (Homo sapiens, UniProt P52333); assay: Lanthascreen TR-FRET enzymatic assay, JAK3; format: binding; conditions: recombinant JAK3, 1 hour at 25° C., 1% DMSO; read-out: Enzymology (IC50) JAK3
T3 construct: purchased Life Technologies PV3855
T3 sequence (P52333 1-1124): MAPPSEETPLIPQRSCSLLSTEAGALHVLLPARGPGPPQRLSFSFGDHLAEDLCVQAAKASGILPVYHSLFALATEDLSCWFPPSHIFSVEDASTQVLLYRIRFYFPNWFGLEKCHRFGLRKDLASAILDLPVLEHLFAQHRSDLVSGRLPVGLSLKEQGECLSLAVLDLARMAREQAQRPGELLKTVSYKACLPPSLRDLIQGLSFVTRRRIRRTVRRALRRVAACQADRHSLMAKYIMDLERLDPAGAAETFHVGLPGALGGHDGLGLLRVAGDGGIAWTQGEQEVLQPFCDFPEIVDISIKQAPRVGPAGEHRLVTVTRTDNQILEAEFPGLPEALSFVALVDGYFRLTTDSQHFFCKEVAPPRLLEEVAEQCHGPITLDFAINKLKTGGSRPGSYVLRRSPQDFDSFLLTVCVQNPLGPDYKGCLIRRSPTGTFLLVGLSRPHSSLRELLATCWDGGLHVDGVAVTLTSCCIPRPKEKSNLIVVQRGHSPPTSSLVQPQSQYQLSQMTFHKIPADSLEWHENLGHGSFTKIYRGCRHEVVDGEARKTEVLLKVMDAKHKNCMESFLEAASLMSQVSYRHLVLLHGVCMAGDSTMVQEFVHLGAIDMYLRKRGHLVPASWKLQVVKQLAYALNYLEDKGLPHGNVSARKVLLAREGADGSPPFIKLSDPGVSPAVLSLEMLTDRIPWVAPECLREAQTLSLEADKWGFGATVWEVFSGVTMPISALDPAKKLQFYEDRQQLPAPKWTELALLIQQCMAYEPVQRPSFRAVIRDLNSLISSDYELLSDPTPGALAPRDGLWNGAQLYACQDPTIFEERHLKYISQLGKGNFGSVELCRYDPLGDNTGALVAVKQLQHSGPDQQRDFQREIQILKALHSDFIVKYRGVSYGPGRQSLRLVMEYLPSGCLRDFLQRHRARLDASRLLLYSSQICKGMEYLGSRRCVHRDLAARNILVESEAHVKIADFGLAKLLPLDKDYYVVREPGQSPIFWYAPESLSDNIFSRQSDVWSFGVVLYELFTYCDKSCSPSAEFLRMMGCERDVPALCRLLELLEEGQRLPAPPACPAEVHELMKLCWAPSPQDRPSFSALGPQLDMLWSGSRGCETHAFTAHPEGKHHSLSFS
Method: as §1, §2
JAK3 assays: 15 nM of […], 3 nM of the 236 kinase tracker (Life Technologies #PV5592) and 6 nM of the Europium-tagged anti-GST Lanthascreen® antibody are mixed into 15 μL total volume reaction mixture.
as §3, §4

[4] = system: MV4-11 cells; assay: Antiproliferative activity assay (ATPLite), MV4-11; format: cell-based; conditions: Homo sapiens, MV4-11 (AML, FLT3-ITD), 72 h, read-out: Inhibition of proliferation (EC50) MV411
Method: (§5) Cell lines MV4-11 and MOLM-13 are grown according to conditions depicted in Table 2 following the provider recommendations.
(§6) Assays are being run into 96-well plates. Cells are passaged at Day 0, seeded at Day 1 and added with increasing quantities of the compounds to evaluate. Plates are incubated for 72 h at 37° C. under a 5% CO2 atmosphere.
(§7) Half-logarithmic dilutions from compounds stock solutions in DMSO (Sigma #D8414) were done in order to obtain 0.1% DMSO solutions.
(§8) Cellular viability is measured at Day 4 with the ATPLite (Perkin Elmer #6016947) kit.

[5] = system: MOLM-13 cells; assay: Antiproliferative activity assay (ATPLite), MOLM-13; format: cell-based; conditions: Homo sapiens, MOLM-13 (AML, FLT3-ITD), 72 h, read-out: Inhibition of proliferation (EC50) MOLM13
Method: as §5, §6, §7, §8

| SMILES | IC50 [1] [nM] | IC50 [2] [nM] | IC50 [3] [nM] | EC50 [4] [nM] | EC50 [5] [nM] |
| --- | --- | --- | --- | --- | --- |
| COc1cc2c(cc1N)c(=O)n(C)c1cnc(Nc3cc(N)cc(F)c3)nc21 [Compound C26, 8-amino-2-((3-amino-5-fluorophenyl)amino)-9-methoxy-5-methylpyrimido [5,4-c]isoquinolin-6(5H)-one] | 100 to 1000 | 100 to 1000 | 100 to 1000 | 25 to 100 | 25 to 100 |
| Cn1c(=O)c2cc(N)ccc2c2nc(Nc3ccc(OCCN4CCCC4)cc3)ncc21 [Compound C34, 8-amino-5-methyl-2-((4-(2-(pyrrolidin-1-yl)ethoxy)phenyl)amino)pyrimido[5,4-c]isoquinolin-6(5H)-one] | 25 to 100 | 100 to 1000 | 100 to 1000 | 100 to 1000 | 100 to 1000 |
| Cn1c(=O)c2cc(N)ccc2c2nc(Nc3cccc(N)c3)ncc21 [Compound C2, 8-amino-2-((3-aminophenyl)amino)-5-methylpyrimido[5,4-c]isoquinolin-6(5H)-one] | 25 to 100 | 25 to 100 | 25 to 100 | 25 to 100 | 25 to 100 |
| CN1CCN(c2cccc(Nc3ncc4c(n3)c3ccc(N)cc3c(=O)n4C)c2)CC1 [Compound C6, 8-amino-5-methyl-2-((3-(4-methylpiperazin-1-yl)phenyl)amino)pyrimido[5,4-c]isoquinolin-6(5H)-one] | 25 to 100 | 100 to 1000 | 25 to 100 | 25 to 100 | 25 to 100 |
| Cn1c(=O)c2cc(N)ccc2c2nc(Nc3ccc(F)c(N)c3)ncc21 [Compound C22, 8-amino-2-((3-amino-4-fluorophenyl)amino)-5-methylpyrimido[5,4-c]isoquinolin-6(5H)-one] | 100 to 1000 | 100 to 1000 | 25 to 100 | 100 to 1000 | 100 to 1000 |
| COc1cc2c(cc1N)c(=O)n(C)c1cnc(Nc3ccc(OCCN4CCCC4)cc3)nc21 [Compound C42, 8-amino-9-methoxy-5-methyl-2-((4-(2-(pyrrolidin-1-yl)ethoxy)phenyl)amino) pyrimido[5,4-c]isoquinolin-6(5H)-one] | 100 to 1000 | 100 to 1000 | 100 to 1000 | 100 to 1000 | 100 to 1000 |

Second part, the molecule after the results:

| IC50 [1] [nM] | IC50 [2] [nM] | IC50 [3] [nM] | EC50 [4] [nM] | EC50 [5] [nM] | SMILES |
| --- | --- | --- | --- | --- | --- |
| 25 to 100 | 100 to 1000 | 25 to 100 | < 25 | 100 to 1000 | COc1cc2c(cc1N)c(=O)n(C)c1cnc(Nc3ccc(N4CCN(C)CC4)cc3)nc21 [Compound C10, 8-amino-9-methoxy-5-methyl-2-((4-(4-methylpiperazin-1-yl)phenyl)amino) pyrimido[5,4-c]isoquinolin-6(5H)-one] |
| 25 to 100 | 100 to 1000 | 25 to 100 | < 25 | < 25 | CN1CCN(c2ccc(Nc3ncc4c(n3)c3ccc(N)cc3c(=O)n4C)cc2)CC1 [Compound C4, 8-amino-5-methyl-2-((4-(4-methylpiperazin-1-yl)phenyl)amino)pyrimido[5,4-c]isoquinolin-6(5H)-one] |
| 100 to 1000 | 100 to 1000 | 100 to 1000 | 25 to 100 | 100 to 1000 | COc1cc2c(cc1N)c(=O)n(C)c1cnc(Nc3ccc(F)c(N)c3)nc21 [Compound C28, 8-amino-2-((3-amino-4-fluorophenyl)amino)-9-methoxy-5-methylpyrimido [5,4-c]isoquinolin-6(5H)-one] |

Source: US9944641B2, “Isoquinolinone derivatives useful in the treatment of cancer” (PIERRE FABRE MEDICAMENT, priority 2014, dated 2018)
